Measurements published in patent publication US20100069304A1, “PROTECTIVE EFFECTS OF INHIBITING THE INTERACTION OF CALMODULIN AND MUTANT HUNTINGTIN PROTEIN” (priority 2008, published 2010).
“Also recorded” adds a separate entry of the source. Values belong to the compound of their own block, whether it stands above or below them.

Assays:
TGase = TGase activity in mouse striatal homogenates; format: in vivo; conditions: 500 μM GTPγS, all mouse groups
Method: TGase II Activity Assay. TGase activity was measured by detecting the incorporation of a biotinylated TGase amine substrate, 5-(biotinamido)pentylamine (Pierce, Rockford, Ill.) into N,N'-dimethylcasein (Calbiochem, San Diego, Calif.) as previously described (Dudek et al., 2009). 96-well Immulon 4 HBX plates (Dynatech, Franklin, Mass.) were coated with 100 μl of N,N′-dimethylcasein (20 mg/ml) in 0.05M sodium bicarbonate, and stored at 4° C. overnight. After the unbound N,N′-dimethylcasein was discarded, the plate was washed with PBS and blocked with nonfat dry milk (2% milk in PBS) for 1 hour at 37° C., followed by 3 washes with PBS. Striatum from the various mice were homogenized in 0.1 M Tris-HCl pH 8.3, 1 mM EDTA, 1 mM PMSF, and protease inhibitor cocktail. Striatal homogenates (15 μg of protein/sample) were added to the plate with 0.1 M Tris-HCl pH 8.5, 0.15 M NaCl, 5 mM DTT, 0.5 mM biotin-labeled pentylamine, and 5 mM CaCl2. The mixture was incubated for 1 hour at 37° C. The plate was washed with TBS and 0.001% Tween followed by incubation with streptavidin conjugated to HRP (Jackson ImmunoResearch, West Grove, Pa.) for 1 hour at room temperature. […] Then the reaction was stopped with 3N sulfuric acid and the absorbance was read at 450 nm. […] Each sample was measured in triplicate.

[1] = target: T1, htt-exon1-44Q binding to CaM (Homo sapiens, UniProt P42858, INS38QQQQQQQQQQQQQQQQQQQQQQQ); test: In vitro mutant huntingtin-calmodulin binding (calmodulin-agarose)
T1 construct: encoding exon 1 of huntingtin with 44 glutamine residues; MBP; host or cells: Escherichia coli
T1 sequence (P42858 with tags, fused parts or gaps with the stated changes limits assumed): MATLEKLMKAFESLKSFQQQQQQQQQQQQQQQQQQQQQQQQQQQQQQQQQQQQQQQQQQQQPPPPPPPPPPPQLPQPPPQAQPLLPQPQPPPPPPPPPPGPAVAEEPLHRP

HD transgenic mice = conditions: cited from earlier work
[2] = test system: cells expressing mutant huntingtin and TG; conditions: cited from earlier work
[3] = target: T2, mutant huntingtin (htt-N63-148Q) (Homo sapiens, UniProt P42858, INS26QQQQQQQQQQ/INS27QQQQQQQQQQ/INS28QQQQQQQQQQ/INS29QQQQQQQQQQ/INS30QQQQQQQQQQ/INS31QQQQQQQQQQ/INS32QQQQQQQQQQ/INS33QQQQQQQQQQ/INS34QQQQQQQQQQ/INS35QQQQQQQQQQ/INS36QQQQQQQQQQ/INS37QQQQQQQQQQ/INS38QQQQQQQ); test: TG-modified huntingtin (81D4 immunoprecipitation and immunoblot) in transfected HEK-293T cells; format: cell-based; conditions: HEK-293T cells with htt-N63-148Q, TG2 and CaM construct vs vector control
T2 construct: myc; expressed in transfected cells; host or cells: HEK-293T
T2 sequence (P42858 with tags, fused parts or gaps limits assumed, stated change not applied): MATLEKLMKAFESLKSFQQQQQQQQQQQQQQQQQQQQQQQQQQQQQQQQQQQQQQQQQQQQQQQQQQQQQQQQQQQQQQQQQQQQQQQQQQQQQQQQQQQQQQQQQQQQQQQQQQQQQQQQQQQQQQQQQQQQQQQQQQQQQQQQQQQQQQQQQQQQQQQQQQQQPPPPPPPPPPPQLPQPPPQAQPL
Method: HEK-293T cells were grown in OptiMEM reduced serum medium (Invitrogen, Carlsbad, Calif.) containing nonessential amino acids, antimycotic and antibiotic agents, and 10% FBS, in the presence of 5% CO2 at 37° C. Cells were grown to 80-90% confluency and transfected using Lipofectamine Plus (Invitrogen, Carlsbald, Calif.). […] Forty-eight hours after transfection, cells were harvested and resuspened in lysis buffer containing 50 mM Tris-HCl, pH 8.8, 100 mM NaCl, 5 mM MgCl2, 0.05% NP-40, 1 mM EDTA (Tang T S, Tu H, Chan E Y, et al. Huntingtin and huntingtin-associated protein 1 influence neuronal calcium signaling mediated by inositol-(1,4,5)triphosphate receptor type 1. Neuron 2003;39:227-239) and 1:1,000 protease inhibitor mixture (Sigma, St. Louis, Mo.). […]
Immunoblots. […] Signal was detected using enhanced chemiluminescence (ECL) Western blotting detection reagents (Amersham Biosciences, Piscataway, N.J.). Immunoblots were quantified by calculating the sum of the densities of all of the pixels within each protein band as the integrated optical density (IOD), using Scion Image for Windows (Scion, Frederick, Md.). Film background IOD was measured and subtracted from each band IOD. Measurements were done in triplicate and the mean was calculated.

transglutaminase = test: In situ transglutaminase assay in intact cells; format: cell-based, human; conditions: SHSY5Y-htt-N63-148Q cells
Method: In situ transglutaminase assay. In this in situ assay, transglutaminase activity is measured in intact cells via incorporation of a polyamine and the presence of the transglutaminase-catalyzed bond. Forty-two hours post viral infection, cells were treated with 2 mM 5-(biotinamido)pentylamine, a biotinylated polyamine (Pierce, Rockford, Ill.), and 6 hours post polyamine treatment, cells were harvested and lysed in 0.1 M Tris-HCl pH 8.3, 1 mM EDTA, 1 mM PMSF, and protease inhibitor cocktail. 96-well Immulon 4 HBX plates (Dynatech, Franklin, Mass.) were coated with anti-ε-(γ-glutamyl)lysine (81D4) antibody (CovalAb, Lyon, France) in 0.1 M Na2HPO4.7 H2O pH 9 overnight at 4° C. Then the plates were washed with PBS and blocked with 2% milk in PBS for 1 hour at room temperature, followed by 3 washes with PBS with 0.0375% Tween. Cell lysates (50 μg of protein/sample/well) were added to the wells in triplicates and incubated for 1 hour at 37° C. The plate was washed with PBS and 0.0375% Tween, followed by incubation with streptavidin conjugated to HRP (Jackson ImmunoResearch, West Grove, Pa.) for 1 hour at room temperature. After final washes, a 1×TMB substrate solution (eBioscience, SanDiego, Calif.) was added and color was allowed to develop for 5-10 minutes. The reaction was stopped with 3 N sulfuric acid and the absorbance was read at 450 nm.

reduction of TGase activity (TGase): at least 60%
Compound: Nc1nc2c(ncn2[C@@H]2O[C@H](COP(=O)(O)OP(=O)(O)OP(O)(O)=S)[C@@H](O)[C@H]2O)c(=O)[nH]1 [GTPγS]

amount of CaM-bound htt-exon1-44Q ([1]; 664 μM W-5 along with 10 μM of CaM-peptide): significantly increased
Compound: Cl.NCCCCCCNS(=O)(=O)c1cccc2ccccc12 [W-5, N-(6-Aminohexyl)-1-naphthalenesulfonamide hydrochloride]
amount of CaM-bound htt-exon1-44Q ([1]; W-5 alone): did not affect the amount of CaM-bound htt-exonl-44Q

Compound: NCCSSCCN [cystamine]
survival (HD transgenic mice): increase survival
cell survival [2]: increased cell survival
cross-linking of huntingtin [2]: decreased the cross-linking of huntingtin

Compound: CaM-N-term: calmodulin fragment: first 76 amino acids, contains the first two Ca2+ binding sites
TG-modified huntingtin compared to control cells (in words) [3]: no significant decrease in TG-modified huntingtin, but rather an increase; also recorded: did not reduce the TG-catalyzed modifications of huntingtin

Compound: GDTVEREKDAYNSLEGFDNTIHTLRADIGMVEEVAKSKRDEEFLE [scram-CaM-peptide]
total TG activity in situ between infections (transglutaminase): no significant difference in total TG activity
